From article PMC7253177, “Gain of channel function and modified gating properties in TRPM3 mutants causing intellectual disability and epilepsy” (eLife, 2020)

Target: T1, TRPM3 P1090Q mutant (Homo sapiens, UniProt Q9HCF6, P1115Q)
T1 sequence (Q9HCF6 1-1325 isoform Q9HCF6-10 P1090Q): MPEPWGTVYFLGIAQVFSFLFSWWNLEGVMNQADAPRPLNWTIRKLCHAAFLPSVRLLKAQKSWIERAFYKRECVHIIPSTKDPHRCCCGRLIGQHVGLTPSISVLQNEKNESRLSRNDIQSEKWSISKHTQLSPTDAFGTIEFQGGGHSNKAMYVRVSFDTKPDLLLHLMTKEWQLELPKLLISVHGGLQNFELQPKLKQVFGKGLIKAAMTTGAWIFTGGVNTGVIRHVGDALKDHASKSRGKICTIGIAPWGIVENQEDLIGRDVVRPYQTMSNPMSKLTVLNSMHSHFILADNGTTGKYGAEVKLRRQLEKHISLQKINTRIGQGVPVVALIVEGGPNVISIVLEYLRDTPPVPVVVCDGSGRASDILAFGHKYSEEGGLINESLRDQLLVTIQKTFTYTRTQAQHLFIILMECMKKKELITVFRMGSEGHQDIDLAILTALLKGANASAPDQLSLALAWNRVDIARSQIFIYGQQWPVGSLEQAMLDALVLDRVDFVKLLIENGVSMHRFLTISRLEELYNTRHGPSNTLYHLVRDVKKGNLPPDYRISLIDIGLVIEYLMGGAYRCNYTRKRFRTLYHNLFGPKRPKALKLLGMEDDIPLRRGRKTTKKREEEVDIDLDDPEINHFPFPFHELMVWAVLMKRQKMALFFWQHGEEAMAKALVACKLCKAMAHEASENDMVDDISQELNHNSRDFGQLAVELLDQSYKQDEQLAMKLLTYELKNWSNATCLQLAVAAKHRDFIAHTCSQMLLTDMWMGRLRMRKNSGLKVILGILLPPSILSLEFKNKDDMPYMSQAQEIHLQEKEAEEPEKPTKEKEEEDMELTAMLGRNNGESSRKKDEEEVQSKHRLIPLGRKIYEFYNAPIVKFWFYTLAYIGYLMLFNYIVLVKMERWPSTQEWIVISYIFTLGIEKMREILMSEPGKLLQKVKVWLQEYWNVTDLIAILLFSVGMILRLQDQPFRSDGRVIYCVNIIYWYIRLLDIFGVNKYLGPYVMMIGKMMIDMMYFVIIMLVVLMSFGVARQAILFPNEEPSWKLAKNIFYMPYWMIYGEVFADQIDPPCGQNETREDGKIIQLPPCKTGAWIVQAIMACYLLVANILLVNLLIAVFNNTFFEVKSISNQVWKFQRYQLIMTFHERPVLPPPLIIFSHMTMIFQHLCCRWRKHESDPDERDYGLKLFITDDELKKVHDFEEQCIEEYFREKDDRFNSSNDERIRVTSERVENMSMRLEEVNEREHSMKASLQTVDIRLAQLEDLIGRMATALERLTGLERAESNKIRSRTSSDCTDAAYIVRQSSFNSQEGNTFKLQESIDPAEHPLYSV
Assay: Fura-2-based calcium imaging, HEK293T cells transfected with P1090Q hTRPM3
Type: cell-based
Parameters: expressed in transfected cells; host or cells: HEK293T
Procedure: HEK293T cells ([Graham et al., 1977]) were cultured as described previously ([Vriens et al., 2007]) and used up in passage number 14. HEK293T cells were tested for the lack of mycoplasma and transiently transfected with 2 µg of DNA using TransIT transfection reagent (Mirus) 36–48 hr before the measurements. In case of co-cultures a ratio of 1:1 between hTRPM3-YFP WT and mutants-YFP DNA was used.
All mutants were obtained by the standard PCR overlap extension method using hTRPM3 directly linked to YFP from pCAGGS/IRES-GFP vector ([Vriens et al., 2007]). Accuracy of all mutant sequences was verified by sequencing of the entire DNA constructs.
Changes in intracellular calcium concentration were monitored using ratiometric Fura-2-based fluorimetry. Cells were loaded with 2 µM Fura-2-acetoxymethyl ester (Alexis Biochemicals) for 30 min at 37°C. Fluorescence was measured during alternating illumination at 340 and 380 nm using Eclipse Ti (Nikon) fluorescence microscopy system, and absolute calcium concentration was calculated from the ratio of the fluorescence signals at these two wavelengths (R = F340/F380) as [Ca^2+]=Km × (R-Rmin)/(Rmax-R), where Km, Rmin and Rmax were estimated from in vitro calibration experiments with known calcium concentrations. The bath solution contained (in mM) 138 NaCl, 5.4 KCl, 2 CaCl2, 2 MgCl2, 10 glucose, and 10 HEPES, pH 7.4. […]

**Q.** For `CCC1(c2ccccc2)C(=O)NCNC1=O` [primidone], which “Effect on basal [Ca2+]i” value (primidone 100 µM, isosakuranetin 50 µM) is on record?
**A.** The value was “reduced [Ca^2+]i”.

**Q.** Which “PS concentration giving robust calcium responses (as low as)” value does the source give for pregnenolone sulfate [PS] here?
**A.** The value was 1 µM.
